Measured values as given in the supplement of paper PMC10307832.

Legend:
Experiment in all cases: relative viability (nuclei count vs DMSO), 5 days (fraction); higher = more cells survive
Bortezomib + Luminespib = compound: CC(C)C[C@H](NC(=O)[C@H](Cc1ccccc1)NC(=O)c1cnccn1)B(O)O [Bortezomib] + CCNC(=O)c1noc(-c2cc(C(C)C)c(O)cc2O)c1-c1ccc(CN2CCOCC2)cc1 [Luminespib] (partner 0.01 µM)
Procedure, shortened: (§1)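 One day after seeding in 1536-well plates, lung cancer cell lines were dosed by pin tool. Dosing was either single-drug or a fixed anchor-drug dose plus five library-drug doses (not always all listed) in √10 steps. After 5 days, nuclei were stained in one fix-and-stain step and counted on 4× images, and relative viability is the nuclei count of treated wells over that of vehicle wells, given as the median of duplicate plates.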

Bortezomib + Dasatinib = compound: CC(C)C[C@H](NC(=O)[C@H](Cc1ccccc1)NC(=O)c1cnccn1)B(O)O [Bortezomib] + Cc1nc(Nc2ncc(C(=O)Nc3c(C)cccc3Cl)s2)cc(N2CCN(CCO)CC2)n1 [Dasatinib] (partner 0.075 µM)
Procedure, shortened: as §1

[1] = compound: CC1=CC(=NN1)NC2=CC(=NC(=N2)/C=C/C3=CC=CC=C3)N4CCN(CC4)C + Nc1nc2[nH]cc(CCc3ccc(C(=O)N[C@@H](CCC(=O)O)C(=O)O)cc3)c2c(=O)[nH]1 [Pemetrexed] (partner 0.2 µM)
Procedure, shortened: as §1

[2] = compound: CC1=CC(=NN1)NC2=CC(=NC(=N2)/C=C/C3=CC=CC=C3)N4CCN(CC4)C + O=C(c1cc(Cc2n[nH]c(=O)c3ccccc23)ccc1F)N1CCN(C(=O)C2CC2)CC1 [Olaparib] (partner 8 µM)
Procedure, shortened: as §1

Row | Cell Line | relative viability (Bortezomib + Luminespib; first compound 0.0002 µM) | relative viability (Bortezomib + Luminespib; first compound 0.000632 µM) | relative viability (Bortezomib + Luminespib; first compound 0.002 µM) | relative viability (Bortezomib + Luminespib; first compound 0.006325 µM) | relative viability (Bortezomib + Luminespib; first compound 0.02 µM) | relative viability (Bortezomib + Dasatinib; first compound 0.0002 µM) | relative viability (Bortezomib + Dasatinib; first compound 0.000632 µM) | relative viability (Bortezomib + Dasatinib; first compound 0.002 µM) | relative viability (Bortezomib + Dasatinib; first compound 0.006325 µM) | relative viability (Bortezomib + Dasatinib; first compound 0.02 µM) | relative viability ([1]; first compound 0.08 µM) | relative viability ([1]; first compound 0.253 µM) | relative viability ([1]; first compound 0.8 µM) | relative viability ([1]; first compound 2.53 µM) | relative viability ([1]; first compound 8 µM) | relative viability ([2]; first compound 0.08 µM) | relative viability ([2]; first compound 0.253 µM) | relative viability ([2]; first compound 0.8 µM) | relative viability ([2]; first compound 2.53 µM) | relative viability ([2]; first compound 8 µM)
1 | NCI-H2126 | 0.864 | 0.904 | 0.821 | 0.543 | 0.213 | 0.58 | 0.607 | 0.662 | 0.254 | 0.2 | 0.696 | 0.649 | 0.633 | 0.569 | 0.426 | 0.865 | 0.91 | 0.908 | 0.801 | 0.518
2 | SK-LU-1 | 0.218 | 0.205 | 0.201 | 0.155 | 0.118 | 0.17 | 0.202 | 0.214 | 0.0951 | 0.118 | 1 | 0.943 | 0.933 | 0.372 | 0.127 | 0.405 | 0.515 | 0.423 | 0.273 | 0.125
3 | LCLC-97TM1 | 0.674 | 0.756 | 0.687 | 0.123 | 0.139 | 0.738 | 0.732 | 0.862 | 0.718 | 0.148 | 0.186 | 0.226 | 0.161 | 0.164 | 0.0709 | 0.258 | 0.565 | 0.323 | 0.214 | 0.0672
4 | NCI-H838 | 0.428 | 0.302 | 0.264 | 0.124 | 0.103 | 0.271 | 0.261 | 0.32 | 0.209 | 0.16 | 0.235 | 0.25 | 0.213 | 0.166 | 0.111 | 0.752 | 0.749 | 0.564 | 0.139 | 0.0822
5 | NCI-H520 | 0.223 | 0.234 | 0.237 | 0.211 | 0.217 | 0.173 | 0.207 | 0.18 | 0.201 | 0.179 | 0.643 | 0.688 | 0.322 | 0.14 | 0.0969 | 0.3 | 0.332 | 0.307 | 0.152 | 0.104
6 | NCI-H2347 | 0.558 | 0.607 | 0.411 | 0.25 | 0.208 | 0.685 | 0.353 | 0.332 | 0.321 | 0.219 | 0.418 | 0.415 | 0.447 | 0.397 | 0.379 | 0.553 | 0.665 | 0.578 | 0.565 | 0.406
7 | NCI-H441 | 0.331 | 0.341 | 0.236 | 0.159 | 0.168 | 0.646 | 0.507 | 0.282 | 0.136 | 0.119 | 0.24 | 0.25 | 0.273 | 0.221 | 0.137 | 0.569 | 0.55 | 0.503 | 0.401 | 0.116
8 | NCI-H358 | 0.285 | – | 0.349 | 0.307 | 0.0995 | 0.162 | 0.153 | 0.164 | 0.084 | 0.073 | 0.163 | 0.172 | 0.173 | 0.128 | 0.0753 | 0.505 | 0.644 | 0.486 | 0.209 | 0.068
9 | NCI-H2405 | 0.685 | 0.763 | 0.615 | 0.227 | 0.189 | 0.18 | 0.188 | 0.288 | 0.16 | 0.144 | 1.02 | 0.979 | 1.04 | 0.503 | 0.162 | 0.842 | 0.937 | 0.93 | 0.753 | 0.183
10 | HCC-15 | 0.322 | 0.343 | 0.405 | 0.0965 | 0.0909 | 0.514 | 0.629 | 0.649 | 0.0786 | 0.0817 | 0.244 | 0.22 | 0.225 | 0.192 | 0.113 | 0.748 | 0.611 | 0.718 | 0.298 | 0.113
